Measured values reported in US20250101061A1, “UPREGULATION OF FERRITIN HEAVY CHAIN 1 EXPRESSION” (HBC Immunology Inc., priority 2022, published 2025).
Several values for one entry are separate records, joined by “and”; a condition that tells them apart may be missing. Equal entries are not always repeated. Peptide text beside a SMILES is read from it.

Experiments:
[1] = test system: Immortalized human astrocytes (P10251-IM); assay: Protection of human astrocytes from hemin-induced injury (LDH release assay); assay type: cell-based; conditions: for % LDH Release (individual runs) / % LDH Release, Average: 24 hr pre-treatment: SPH 160 μM, oligopeptide 10 μM, collagen control 160 μM, then 30 μM hemin 6 hrs, scaled to 0.1% Triton X-100 lysis; for mortality of astrocytes after hemin: oligopeptide 10 μM pre-treatment, hemin-induced oxidative damage
Procedure: (§1) Immortalized human astrocytes (P10251-IM) were obtained from Innoprot, Spain and prepared under conditions recommended by the supplier. At 90% confluency, the P10251-IM cells were rinsed with 8 ml of DPBS and 2 ml of the T/E Solution (prepared as per Innoprot procedure), then added into an […] and gently rocked so that the P10251-IM cells would be completely covered. The flask was subsequently incubated at 37° C. for 2 minutes. Then 5 ml of fetal bovine serum (FBS) and the T/E solution from the flask were added into a 50 ml conical centrifuge tube. The flask was incubated for an additional 2 minutes, and the P10251-IM cells dislodged from the surface by gentle tapping. The P10251-IM cells were then transferred to the 50 ml conical centrifuge tube with 5 ml of TNS solution. The tube was centrifuged at 1000 rpm for 5 minutes. Then the P10251-IM cells were resuspended in the culture medium, counted, and plated in a poly-L-lysine-coated culture plate at 1×10^4 cell density. Cells were tested after they were incubated for 21 days in vitro.
(§2) Confluent P10251-IM cell cultures were washed and then pre-treated with medium alone, or medium supplemented with SPH (160 μM) or an oligopeptide (10 μM) for 24 hr at 37° C. Commercial collagen peptide (Vital Protein) at 160 μM concentration and sterile water were used as negative controls. The P10251-IM cells were subsequently treated with 30 μM hemin in serum-free medium consisting of MEM with 10 mM glucose (MEM10) for 6 hrs.
P10251-IM astrocyte cultures that were […] with 30 μM hemin sustained widespread cell injury. Cell viability was quantified using the lactate dehydrogenase (LDH) release assay as previously described (Chen and Regan, Curr Neurovasc Res, 2:189-196, 2005). Briefly, quantification of the protective effects of SPH and oligopeptides were assessed by determining the mean percentage LDH released, scaled to the complete lysis control culture which was treated with 0.1% Triton X-100 (considered to release 100% of culture LDH).

H-Ferritin = H-Ferritin gene expression in hemin-treated astrocytes by qRT-PCR; assay type: cell-based, human; conditions: oligopeptide 10 μM; for H-Ferritin Fold Change, Average / H-Ferritin Fold Change (individual runs): SPH 160 μM, collagen control 160 μM, after 6 hr hemin; for H-Ferritin Fold Change (individual runs): GAPDH housekeeping, normalized to control wells
Procedure: as §1, §2
(§3) L-Ferritin and H-Ferritin gene expression were then quantified. Briefly, after 6 hr incubation with hemin, the astrocytes were lysed, and RNA was extracted using the Qiagen lipid mini kit. The expression of both genes (L-ferritin and H-ferritin) involved in iron homeostasis was assessed by qRT-PCR. Fold changes were calculated using the ΔCt method, using GAPDH as the housekeeping gene. Fold changes were normalized to expression levels in control wells. Experiments were run in triplicate.
(§4) The primers used for amplification of cDNA were: […]

L-Ferritin = L-Ferritin gene expression in hemin-treated astrocytes by qRT-PCR; assay type: cell-based, human; conditions: SPH 160 μM, oligopeptide 10 μM, collagen control 160 μM, after 6 hr hemin; for L-Ferritin Fold Change (individual runs): GAPDH housekeeping, normalized to control wells
Procedure: as §1, §2, §3, §4

| SMILES | % LDH Release (individual runs) [1] | % LDH Release, Average [1] | mortality of astrocytes after hemin [1] | H-Ferritin Fold Change, Average (H-Ferritin) | H-Ferritin Fold Change (individual runs) (H-Ferritin) | increases in H-Ferritin gene expression (H-Ferritin) | L-Ferritin Fold Change, Average (L-Ferritin) | L-Ferritin Fold Change (individual runs) (L-Ferritin) |
| --- | --- | --- | --- | --- | --- | --- | --- | --- |
| CSCC[C@H](NC(=O)[C@@H]1CCCN1C(=O)[C@H](CCCCN)NC(=O)[C@H](CC(=O)O)NC(=O)[C@H](CO)NC(=O)[C@H](CCC(=O)O)NC(=O)[C@H](CCC(=O)O)NC(=O)[C@@H](N)CCCNC(=N)N)C(=O)N[C@@H](Cc1ccc(O)cc1)C(=O)O [FT-006, REESDKPMY] (H-REESDKPMY-OH) | 40% and 39% and 42% | 40% | 40% | 3.0 fold | 2.9 fold (2×) and 3.1 fold | 3.0 fold | 1.3 fold | 1.3 fold |
| N=C(N)NCCC[C@H](NC(=O)[C@@H]1CCCN1)C(=O)N[C@@H](CCC(=O)O)C(=O)N[C@@H](CCC(=O)O)C(=O)N[C@@H](CO)C(=O)N[C@@H](CC(=O)O)C(=O)N[C@@H](CCCCN)C(=O)N1CCC[C@H]1C(=O)O [FT-007, PREESDKP] (H-PREESDKP-OH) | 35% and 38% and 34% | 36% | 36% | 3.3 fold | 3.5 fold and 3.2 fold and 3.3 fold | 3.3 fold | 1.1 fold | 1.1 fold and 1.2 fold and 1.0 fold |
| CC(C)C[C@H](NC(=O)[C@H](CCC(=O)O)NC(=O)CNC(=O)[C@H](CO)NC(=O)[C@H](CCC(=O)O)NC(=O)[C@H](CCC(=O)O)NC(=O)[C@@H](N)CCCNC(=N)N)C(=O)O [FT-008, REESGEL] (H-REESGEL-OH) | 29% and 27% and 31% | 29% | 29% | 4.2 fold | 4.1 fold (2×) and 4.4 fold | 4.0 fold | 1.6 fold | 1.8 fold and 1.6 fold and 1.5 fold |
